According to ChEMBL document CHEMBL4840339, “A naphthyridine-indole ligand for selective stabilization of G-quadruplexes and conformational conversion of hybrid topology” (Bioorg Med Chem, 2021):
The source made the active and inactive calls. No cut-off for these calls is given here.

Columns and labels:
[1] = system: Quadruplex DNA; experiment: Stabilization of G4 quadruplex DNA in human HeLa cells assessed as BG4 foci formation at 6 uM measured after 24 hrs by confocal microscopic analysis; type: cell-based
[2] = system: HeLa; experiment: Induction of apoptosis in human HeLa cells assessed as increase in caspase 3 level at 4 to 6 uM measured after 48 hrs; type: functional, cell-based; details: dose 4-6 µM
[3] = system: HeLa; experiment: Induction of apoptosis in human HeLa cells assessed as viable cells at 6 uM after 24 hrs by Annexin V-FITC/PI staining based flow cytometric analysis (reference value: 95.8 %); type: functional; details: read-out: Activity
[4] = system: Quadruplex DNA; experiment: Stabilization of Tel26 G4 quadruplex DNA (unknown origin) assessed as thermal stability by measuring increase in melting temperature by UV melting assay; type: nucleic-acid assay; details: dose 5.0 µM
[5] = system: Quadruplex DNA; experiment: Binding affinity to c-MYC G4 quadruplex DNA (unknown origin) assessed as conversion from hybrid topology to parallel topology by measuring positive signal at 266 nm at 10 to 100 uM by circular dichroism spectroscopy; type: nucleic-acid assay; details: dose 10-100 µM
[6] = system: Quadruplex DNA; experiment: Stabilization of F-Tel21-T G4 quadruplex DNA (unknown origin) assessed as thermal stability by measuring normalized intensity at 2 uM by FRET assay; type: nucleic-acid assay
[7] = system: Quadruplex DNA; experiment: Binding affinity to G4 quadruplex DNA (unknown origin) assessed as assessed as compound-DNA complex formation by 1H-NMR spectra analysis; type: nucleic-acid assay
[8] = target: Quadruplex DNA; experiment: Displacement of thiazole orange from Tel26 G4 quadruplex DNA (unknown origin) assessed as relative affinity by fluorescent intercalator displacement assay; type: nucleic-acid assay
[9] = system: Quadruplex DNA; experiment: Binding affinity to Bcl-2 G4 quadruplex DNA (unknown origin) assessed as conversion from hybrid topology to parallel topology by measuring positive signal at 266 nm at 10 to 100 uM by circular dichroism spectroscopy; type: nucleic-acid assay; details: dose 10-100 µM
[10] = system: Quadruplex DNA; experiment: Binding affinity to c-KIT1 G4 quadruplex DNA (unknown origin) assessed as conversion from hybrid topology to parallel topology by measuring positive signal at 266 nm at 10 to 100 uM by circular dichroism spectroscopy; type: nucleic-acid assay; details: dose 10-100 µM
[11] = system: HeLa; experiment: Induction of apoptosis in human HeLa cells assessed as late apoptotic cells at 6 uM after 24 hrs by Annexin V-FITC/PI staining based flow cytometric analysis (reference value: 0.42 %); type: functional
[12] = system: HeLa; experiment: Induction of cell cycle arrest in human HeLa cells assessed as G2/M cell population level at 6 uM incubated for 24 hrs by propidium iodide /RNase staining based flow cytometry (reference value: 36 %); type: functional
[13] = system: Quadruplex DNA; experiment: Binding affinity to ds26 non-G4 DNA (unknown origin) assessed as conversion from hybrid topology to parallel topology by measuring positive signal at 266 nm at 10 to 100 uM by circular dichroism spectroscopy; type: nucleic-acid assay; details: dose 10-100 µM
[14] = system: HeLa; experiment: Induction of apoptosis in human HeLa cells assessed as necrotic cells at 6 uM after 24 hrs by Annexin V-FITC/PI staining based flow cytometric analysis (reference value: 0.42 %); type: functional
[15] = system: HeLa; experiment: Induction of apoptosis in human HeLa cells assessed as early apoptotic cells at 6 uM after 24 hrs by Annexin V-FITC/PI staining based flow cytometric analysis (reference value: 3.28 %); type: functional
[16] = system: Quadruplex DNA; experiment: Binding affinity to Tel26 G4 quadruplex DNA (unknown origin) assessed as conversion from hybrid topology to parallel topology by measuring positive signal at 266 nm at 10 to 100 uM by circular dichroism spectroscopy; type: nucleic-acid assay; details: dose 10-100 µM
[17] = system: Quadruplex DNA; experiment: Binding affinity to Tel26 G4 quadruplex DNA (unknown origin) assessed as positive signal at 266 nm measured up to 90 deg C at 100 uM by variable temperature circular dichroism spectroscopy; type: nucleic-acid assay
[18] = system: HeLa; experiment: Cytotoxicity against human HeLa cells assessed as […] in cell viability measured after 48 hrs by MTT assay; type: functional, cell-based
[19] = system: Quadruplex DNA; experiment: Stabilization of Tel26 G4 quadruplex DNA (unknown origin) assessed as thermal stability by measuring increase in melting temperature at 100 uM by variable temperature circular dichroism spectroscopy; type: nucleic-acid assay
[20] = system: dsDNA; experiment: Stabilization of dsDNA (unknown origin) assessed as thermal stability by measuring increase in melting temperature by UV melting assay; type: nucleic-acid assay
[21] = system: HeLa; experiment: Induction of cell cycle arrest in human HeLa cells assessed as S cell population level at 6 uM incubated for 24 hrs by propidium iodide /RNase staining based flow cytometry (reference value: 36 %); type: functional
[22] = system: Quadruplex DNA; experiment: Binding affinity to Tel23 G4 quadruplex DNA (unknown origin) assessed as conversion from hybrid topology to parallel topology by measuring positive signal at 266 nm at 10 to 100 uM by circular dichroism spectroscopy; type: nucleic-acid assay; details: dose 10-100 µM
[23] = system: Quadruplex DNA; experiment: Stabilization of F-Tel21-T G4 quadruplex DNA (unknown origin) assessed as thermal stability by measuring normalized intensity in presence of 10 to 50 eq dsDNA at 2 uM by FRET-based competition assay; type: nucleic-acid assay
[24] = system: HeLa; experiment: Induction of cell cycle arrest in human HeLa cells assessed as G0/1 cell population level at 6 uM incubated for 24 hrs by propidium iodide /RNase staining based flow cytometry (reference value: 38 %); type: functional

CN(C)CCOc1ccc2c(ccn2-c2ccc3ccc(-n4ccc5cc(OCCN(C)C)ccc54)nc3n2)c1
Activity [1]: Active | Activity [2]: Active | viability at 6 µM [3]: 61.8% | Activity [4]: Active | Activity [5]: inactive | Activity [6]: Active | Activity [7]: Active | IC50 [8]: 6.7 µM | Activity [9]: Active | Activity [10]: inactive | Activity [11]: 16.6% | Activity [12]: 10% | Activity [13]: inactive | Activity [14]: 1.49% | Activity [15]: 20.1% | Activity [16]: Active | Activity [17]: Active | IC50 [18]: 4.3 µM | ΔTm [19]: 37 °C | Activity [20]: inactive | Activity [21]: 33% | Activity [22]: Active | Activity [23]: Active | Activity [24]: 57%
